From article PMC9610943, “Truncated Pleurocidin Derivative with High Pepsin Hydrolysis Resistance to Combat Multidrug-Resistant Pathogens” (Pharmaceutics, 2022)
Where no end group is shown, it is not given here.

Assays:
E. coli B2 = format: cell-based
Method: (§1) The MICs of all drugs were determined by micro-broth dilution method according to CLSI 2018 guidelines. Briefly, a single colony of the bacterial strain was transferred to 1 mL of Mueller Hilton broth (MHB) and overnight at 37 °C and then 10 μL were cultured in a new 1 mL medium for 4 to 6 h, and then the bacterial culture at the logarithmic phase was diluted to 1 × 10^6 CFUs/mL. The assay was performed by adding 100 μL of each peptide solution at various concentrations (0.25 to 128 μg/mL) and 100 μL of diluted bacterial culture to different wells of a 96-well microtiter plate (Corning, NY, USA). After incubation at 37 °C for 16 to 18 h and then read its MIC value. MIC value is defined as the lowest drug concentration without visible bacteria.
(§2) Then, the antibacterial activity of the peptides affected by different temperatures and pH were determined according to the determination steps of MICs test.
(§3) In MHB medium, Na^+, K^+, Mg^2+ and Ca^2+ with the final concentrations of 10 mM, fetal bovine serum, plasma or DMEM medium (Hyclone, Logan, UT, USA) with the final concentrations of 10% was added, and then MIC values were measured to evaluate the effects of different cations, serum and plasma on the antibacterial activity of peptides.
(§4) The peptide was incubated with protease (pepsin, trypsin and papain) (Solarbio, Beijing, China) with a final concentration of 1 mg/mL at 37 °C for 1 h, then the mixture of peptide and protease was heated at 100 °C for 30 min, then centrifuged at 13,000× g for 30 min, and the supernatant was taken for MIC determination.

MRSA T144 [1] = experiment: microbe, parasite or virus in culture; format: cell-based, Staphylococcus aureus; settings: T144
Method: (§5) S. aureus ATCC 29213, E. coli ATCC 25922, S. enteritidis ATCC 13076 and A. baumannii ATCC 19609 were obtained from the American Type Culture Collection (ATCC). The remaining strains used in the experiment were all preserved strains in our laboratory. All strains were cultured in nutrient broth overnight to the logarithmic phase at 37 °C prior to each experiment.
as §1

MRSA 1530 = experiment: microbe, parasite or virus in culture; format: cell-based, Staphylococcus aureus; settings: 1530
Method: as §5, §1

[2] = system: P. aeruginosa (VIM + tmexCD1-torJ1); experiment: microbe, parasite or virus in culture; format: cell-based; settings: VIM + tmexCD1-torJ1
Method: as §5, §1

P. aeruginosa PA14 = experiment: microbe, parasite or virus in culture; format: cell-based; settings: PA14
Method: as §5, §1

S. aureus ATCC 29213 = experiment: microbe, parasite or virus in culture; format: cell-based; settings: ATCC 29213
Method: as §5, §1

[3] = system: S. enteritidis ATCC 13076; experiment: microbe, parasite or virus in culture; format: cell-based; settings: ATCC 13076
Method: as §5, §1

E. coli C3 (blaNDM-1) = experiment: microbe, parasite or virus in culture; format: cell-based; settings: C3 (blaNDM-1)
Method: as §5, §1

A. baumannii ATCC 19609 = experiment: microbe, parasite or virus in culture; format: cell-based; settings: ATCC 19609
Method: as §5, §1

E. coli G92 (mcr-1) = experiment: microbe, parasite or virus in culture; format: cell-based; settings: G92 (mcr-1)
Method: as §5, §1

[4] = system: S. aureus 215 (cfr + LZD^R); experiment: microbe, parasite or virus in culture; format: cell-based; settings: S. aureus 215 (cfr + LZD^R); micro-broth dilution CLSI 2018, MHB, 37 °C, 16 to 18 h
Method: as §5, §1

E. coli G6 (blaNDM-5) = experiment: microbe, parasite or virus in culture; format: cell-based; settings: G6 (blaNDM-5)
Method: as §5, §1

[5] = system: E. coli B2 (blaNDM-5 + mcr-1); experiment: microbe, parasite or virus in culture; format: cell-based; settings: B2 (blaNDM-5 + mcr-1)
Method: as §5, §1

E. coli B3-1 (tet(X4)) = experiment: microbe, parasite or virus in culture; format: cell-based; settings: B3-1 (tet(X4))
Method: as §5, §1

[6] = system: E. faecalis A4 (VRE, VanA); experiment: microbe, parasite or virus in culture; format: cell-based; settings: A4 (VRE, VanA)
Method: as §5, §1

E. coli 1F28 (tet(X4)) = experiment: microbe, parasite or virus in culture; format: cell-based; settings: 1F28 (tet(X4))
Method: as §5, §1

E. coli ATCC 25922 = experiment: microbe, parasite or virus in culture; format: cell-based; settings: ATCC 25922
Method: as §5, §1

S. aureus G16 (RIF^R) = experiment: microbe, parasite or virus in culture; format: cell-based; settings: S. aureus G16 (RIF^R); micro-broth dilution CLSI 2018, MHB, 37 °C, 16 to 18 h
Method: as §5, §1

E. coli CP131 (mcr-3) = experiment: microbe, parasite or virus in culture; format: cell-based; settings: CP131 (mcr-3)
Method: as §5, §1

MRSA T144 [7] = format: cell-based, Staphylococcus aureus
Method: as §1, §2, §3, §4

[8] = system: P. cibarius HNCF44W (blaNDM-1+ tet(X6)); experiment: organism not typed; format: cell-based
Method: as §5, §1

GWGSFFKKAAHVGKHVGKAALTHYL [Pleu, Pleurocidin]
MIC after treatment at 121 °C (E. coli B2; B2): 2 µg/mL
MIC in DMEM (10%) (E. coli B2; B2): 4 µg/mL
MIC in Plasma (10%) (E. coli B2; B2): <0.25 µg/mL
MIC in Serum (10%) (E. coli B2; B2): 1 µg/mL
MIC in presence of Ca^2+ (E. coli B2; B2): >128 µg/mL
MIC in presence of K^+ (E. coli B2; B2): 1 µg/mL
MIC in presence of Mg^2+ (E. coli B2; B2): 128 µg/mL
MIC in presence of Na^+ (E. coli B2; B2): 1 µg/mL
MIC, Control (E. coli B2; B2): 2 µg/mL
MIC after Papain treatment (E. coli B2; B2, 1 h): >128 µg/mL
MIC after Pepsin treatment (E. coli B2; B2, 1 h): 128 µg/mL
MIC after Trypsin treatment (E. coli B2; B2, 1 h): >128 µg/mL
MIC after treatment at 40 °C (E. coli B2; B2, 1 h): 1 µg/mL
MIC after treatment at 60 °C (E. coli B2; B2, 1 h): 1 µg/mL
MIC after treatment at 80 °C (E. coli B2; B2, 1 h): 1 µg/mL
MIC after treatment at 100 °C (E. coli B2; B2, 1 h): 2 µg/mL
MIC after treatment at pH 2 (E. coli B2; B2, 1 h, pH 2): 1 µg/mL
MIC after treatment at pH 4 (E. coli B2; B2, 1 h, pH 4): 1 µg/mL
MIC after treatment at pH 6 (E. coli B2; B2, 1 h, pH 6): 1 µg/mL
MIC after treatment at pH 8 (E. coli B2; B2, 1 h, pH 8): 1 µg/mL
MIC after treatment at pH 10 (E. coli B2; B2, 1 h, pH 10): 1 µg/mL
MIC after treatment at pH 12 (E. coli B2; B2, 1 h, pH 12): 1 µg/mL
MIC (MRSA T144 [1]): 2 µg/mL
MIC (MRSA 1530): 8 µg/mL
MIC [2]: 4 µg/mL
MIC (P. aeruginosa PA14): 1 µg/mL
MIC (S. aureus ATCC 29213): 4 µg/mL
MIC [3]: 1 µg/mL
MIC (E. coli C3 (blaNDM-1)): 1 µg/mL
MIC (A. baumannii ATCC 19609): 2 µg/mL
MIC (E. coli G92 (mcr-1)): 1 µg/mL
MIC [4]: 2 µg/mL
MIC (E. coli G6 (blaNDM-5)): 1 µg/mL
MIC [5]: 2 µg/mL
MIC (E. coli B3-1 (tet(X4))): 1 µg/mL
MIC [6]: 8 µg/mL
MIC (E. coli 1F28 (tet(X4))): 4 µg/mL
MIC (E. coli ATCC 25922): 1 µg/mL
MIC (S. aureus G16 (RIF^R)): 2 µg/mL
MIC (E. coli CP131 (mcr-3)): 1 µg/mL
MIC after treatment at 121 °C (MRSA T144 [7]; T144): 8 µg/mL
MIC in DMEM (10%) (MRSA T144 [7]; T144): 2 µg/mL
MIC in Plasma (10%) (MRSA T144 [7]; T144): 2 µg/mL
MIC in Serum (10%) (MRSA T144 [7]; T144): 4 µg/mL
MIC in presence of Ca^2+ (MRSA T144 [7]; T144): >128 µg/mL
MIC in presence of K^+ (MRSA T144 [7]; T144): 2 µg/mL
MIC in presence of Mg^2+ (MRSA T144 [7]; T144): 8 µg/mL
MIC in presence of Na^+ (MRSA T144 [7]; T144): 2 µg/mL
MIC, Control (MRSA T144 [7]; T144): 2 µg/mL
MIC after Papain treatment (MRSA T144 [7]; T144, 1 h): >128 µg/mL
MIC after Pepsin treatment (MRSA T144 [7]; T144, 1 h): 64 µg/mL
MIC after Trypsin treatment (MRSA T144 [7]; T144, 1 h): >128 µg/mL
MIC after treatment at 40 °C (MRSA T144 [7]; T144, 1 h): 2 µg/mL
MIC after treatment at 60 °C (MRSA T144 [7]; T144, 1 h): 1 µg/mL
MIC after treatment at 80 °C (MRSA T144 [7]; T144, 1 h): 2 µg/mL
MIC after treatment at 100 °C (MRSA T144 [7]; T144, 1 h): 4 µg/mL
MIC after treatment at pH 2 (MRSA T144 [7]; T144, 1 h, pH 2): 4 µg/mL
MIC after treatment at pH 4 (MRSA T144 [7]; T144, 1 h, pH 4): 4 µg/mL
MIC after treatment at pH 6 (MRSA T144 [7]; T144, 1 h, pH 6): 2 µg/mL
MIC after treatment at pH 8 (MRSA T144 [7]; T144, 1 h, pH 8): 4 µg/mL
MIC after treatment at pH 10 (MRSA T144 [7]; T144, 1 h, pH 10): 4 µg/mL
MIC after treatment at pH 12 (MRSA T144 [7]; T144, 1 h, pH 12): 4 µg/mL
MIC [8]: 2 µg/mL
